From patent US5606037A, “Processes antineoplastic heteronaphthoquinones” (BioChem Pharma Inc., priority 1995, dated 1997)

Tests used:
Format in all cases: cell-based, Human
[1] = system: SKOV3 (Ovarian adenocarcinoma); test: In vitro cytotoxicity, microculture tetrazolium (MTT) assay, SKOV3; settings: SKOV3 ovarian adenocarcinoma, 48 h with compound, further 48 h, MTT, Table 1
Procedure: (§1) The microculture tetrazolium assay was used to test in vitro cytotoxicity. This assay is described in Plumb, J. A. et al., 1989 Cancer Research 49, 4435-4440, which is herein incorporated by reference. The cytotoxicity of compounds towards tumor cells is measured in vitro using the assay. This assay method is based upon the ability of live, but not dead cells to reduce the yellow water soluble dye 3-(4,5-dimethylthiazol-2-yl)-2,5-diphenyltetrazolium bromide (MTT) to its water insoluble purple formazan product.
(§2) Human Tumor Cell lines, used were:
SKOV3 (Ovarian adenocarcinoma)--provided by Dr. V. Ling, Ontario Cancer Institute.
(§3) The cells were maintained in exponential growth in culture in minimal essential media (MEM) supplemented with non-essential amino acids, and containing 15% (v/v) fetal. bovine serum, 5 mM L-glutamine, 1 mM sodium pyruvate, and 0.1 U/ml insulin. All cell lines were grown at 37° C. in an atmosphere of 5% CO2 in air.
(§4) MTT: 2 mg/ml in phosphate buffered saline (stable at 4° C. in dark for 1 week).
(§5) Sorensen's buffer: 0.1M glycine/NaOH, pH 10.5, containing 0.1M NaCl.
(§6) Test compounds: 20 mM in DMSO and diluted to a final concentration of 200 μM in culture medium before use.
(§7) For each assay, doxorubicin is included as an inter-assay standard. This allows us to monitor the behaviour of the assay in general, and in particular, to check that the SKVLB line has maintained its resistant phenotype.
(§8) The assays are carried out in 96-well (8 well×12 well) microtiter plates. Serial dilutions of the compound are tested along the length of the plate. A 1:3 serial dilution of compound in culture medium covers a concentration range from 100 μM to 1.7 nM. Each concentration of compound is tested in quadruplet, allowing two compounds to be tested per plate. Wells containing no cells (blank) and cells with no test compound (control) are included on each plate.
(§9) Cells are plated out in 100 μl of culture medium in the microtiter plates at a density of around 1,500-4,000 cells per well. The plates are incubated overnight to allow the cells to become adherent after which the test compound is added (100 μl of appropriate dilution per well). The cells are incubated with test compound at 37° C. for 48 h after which the compound is replaced with fresh medium. After a further 48 h incubation at 37° C., 50 μl of MTT solution (2 mg/ml) is added to each well. The plates are incubated in the dark for 4 h at 37° C. after which the medium is removed. The MTT formazan product is extracted from the cells by the addition of 200 μl DMSO followed by 50 μl of Sorensen's buffer. The plates are shaken briefly and the absorbance at 570 nm is read using a Molecular Devices UV max plate reader. Curves are fit to the MTT assay data using a four parameter logistic equation, and the data are normalized to fit a 0% to 100% survival scale.

[2] = system: SKVLB (Ovarian; multidrug resistant); test: In vitro cytotoxicity, microculture tetrazolium (MTT) assay, SKVLB; settings: SKVLB multidrug resistant ovarian, 48 h with compound, further 48 h, MTT, Table 1
Procedure: as §1, §2
SKVLB (Ovarian; multidrug resistant)--Dr. V. Ling, Ontario Cancer Institute.
as §3, §4, §5, §6, §7, §8, §9

Lox (Melanoma) = test: In vitro cytotoxicity, microculture tetrazolium (MTT) assay, LOX; settings: Homo sapiens, 48 h with compound, further 48 h, Table 1
Procedure: as §1, §2
Lox (Melanoma)--Southern Research Institute.
as §3, §4, §5, §6, §7, §8, §9

[3] = system: HT 29 (Colon adenocarcinoma); test: In vitro cytotoxicity, microculture tetrazolium (MTT) assay, HT29; settings: further 48 h, Table 1
Procedure: as §1, §2
HT 29 (Colon adenocarcinoma) ATCC catalog #HTB-38.
as §3, §4, §5, §6, §7, §8, §9

[4] = system: T47D (Ductal carcinoma of breast); test: In vitro cytotoxicity, microculture tetrazolium (MTT) assay, T47D; settings: 48 h with compound, further 48 h, Table 1
Procedure: as §1, §2
T47D (Ductal carcinoma of breast)--ATCC catalog #HTB-133.
as §3, §4, §5, §6, §7, §8, §9

[5] = Homo sapiens, HT-29, 48 h with compound

| Structure (SMILES) | IC50 ([1]; Homo sapiens, SK-OV-3) [nM] | IC50 ([2]; Homo sapiens) [nM] | IC50 (Lox (Melanoma)) [nM] | IC50 [3, 5] [nM] | IC50 ([4]; Homo sapiens) [nM] | IC50 [4] [nM] | IC50 [1] [nM] | IC50 ([3]; 48 h with compound) [nM] | IC50 [2] [nM] |
| --- | --- | --- | --- | --- | --- | --- | --- | --- | --- |
| C[C@@H]1O[C@@H](OC2OC(C#N)CC3=C2C(=O)c2ccccc2C3=O)C[C@H](NC(=O)C(F)(F)F)[C@@H]1O (mixture of isomers) [BCH1688, (1'-S, 1-R, 3-S) and (1'-S, 1-S, 3-R)-3-cyano-1-[2',3',6'-trideoxy-3'-trifluoroacetamido-4'-hydroxy-L-lyxohexopyranose)-5,10-dioxo-3,4,5,10-tetrahydronaphtho-[2,3C]pyran-3-yl] | 634 | 2770 | 402 | 1350 |  |  |  |  |  |
| CC(=O)O[C@@H]1[C@H](C)O[C@@H](OC2OC(C(C)=O)CC3=C2C(=O)c2ccccc2C3=O)C[C@@H]1OC(C)=O (mixture of isomers) [BCH2118, (1'S,1S,3R) and (1'S,1R,3S)-methyl-(1-[dideoxy-2',6'-diacetoxy-3',4'-L-lyxohexopyranose]-5,10-dioxo-3,4,5,10-tetrahydronaphtho-[2,3-c]-pyran-3-yl) ketone] | 120 |  |  | 203 | 244 |  |  |  |  |
| CC[C@H]1CC2=C(C(=O)c3ccccc3C2=O)[C@H](NC(C)=O)O1 (relative stereo) [BCH2027, Trans-5,10-dioxo-1-acetamido-3-ethyl-3,4,5,10-tetrahydro-1H-naphtho-[2,3-c]-pyran] | 7010 | 29000 |  | 15400 |  |  |  |  |  |
| CO[C@@H]1O[C@H](C(=O)O)CC2=C1C(=O)c1ccccc1C2=O (relative stereo) [BCH2119, (1,3-cis)-1-methoxy-3-carboxyl-5,10-dioxo-3,4,5,10-tetrahydro-1H-naphtho-[2,3-c]-pyran] | > 100000 | > 100000 |  | > 100000 | > 100000 |  |  |  |  |
| C=C(C)[C@H]1CC2=C(C(=O)c3ccccc3C2=O)[C@H](OC)O1 (relative stereo) [BCH2148, (trans)-5,10-dioxo-3-isopropenyl-1-methoxy-3,4,5,10-tetrahydro-1H-naphtho-[2,3-c]-pyran] | 12600 | 9930 |  | 7500 | 2360 |  |  |  |  |
| COC(=O)C1(C(=O)OC)CC2=C(CO1)C(=O)c1ccccc1C2=O [BCH1665, 3,3-bis-(methoxycarbonyl)-5,10-dioxo-3,4,5,10-tetrahydro-1H-naphtho-[2,3-c]-pyran] | 25400 | 28900 | 11500 | 60400 |  |  |  |  |  |
| CC(=O)O[C@H]1[C@@H](I)[C@H](O[C@H]2O[C@H](C(C)=O)CC3=C2C(=O)c2ccccc2C3=O)O[C@@H](C)[C@H]1OC(C)=O [BCH1666, (1'S,1R,3S)-methyl-(1-[2',6'-dideoxy-3'-4'-diacetoxy-2'-iodo-L-lyxohexopyranose]-5,10-dioxo-3,4,5,10-tetrahydronaphtho[2,3-c]-pyran-3-yl) ketone] | 272 | 205 | 125 | 78.3 |  |  |  |  |  |
| CC(=O)O[C@H]1[C@@H](I)[C@H](O[C@@H]2O[C@@H](C(C)=O)CC3=C2C(=O)c2ccccc2C3=O)O[C@@H](C)[C@H]1OC(C)=O [BCH1667, (1'S,1S,3R)-methyl-(1-[2',6'-dideoxy-3',4'-diacetoxy-2'-iodo-L-lyxohexopyranose]-5,10-dioxo-3,4,5,10-tetrahydronaphtho[2,3-c]-pyran-3-yl) ketone] | 12.2 | 89.3 | 13.3 | 1.6 |  |  |  |  |  |
| COC[C@@H]1CC2=C(C(=O)c3ccccc3C2=O)[C@@H](O[C@H]2C[C@H](NC(=O)C(F)(F)F)[C@H](O)[C@H](C)O2)O1 [BCH1691, (1'S, 1R, 3S)-5,10-dioxo-3-methoxymethyl-1-(2',3',6'-trideoxy-3'-trifluoroacetamido-L-lyxohexopyranose)-3,4,5,10-tetrahydro-1H-naphtho-[2,3-c]-pyran] | 8830 | 18500 | 4490 | 7160 |  |  |  |  |  |
| CC(=O)[C@]1(C)CC2=C(C(=O)c3ccccc3C2=O)[C@H](O[C@H]2C[C@H](NC(=O)C(F)(F)F)[C@H](O)[C@H](C)O2)O1 [BCH2090, (1'S,1S,3S)-1-(3'-trifluoroacetamido-2',3',6'-trideoxy-lyxo-L-hexopyranose)-3-acetyl-3-methyl-3,4,5,10-tetrahydro-5,10-dioxo-1H-naphtho-[2,3-c]pyran] | 11000 | 36000 |  | 10400 |  |  |  |  |  |
| CC(C)OC(=O)[C@H]1CC2=C(C(=O)c3ccccc3C2=O)[C@H](O[C@H]2C[C@H](NC(=O)C(F)(F)F)[C@H](O)[C@H](C)O2)O1 [BCH2121] | 210 | 1300 | 340 | 340 |  |  |  |  |  |
| CC(C)OC(=O)[C@@H]1CC2=C(C(=O)c3ccccc3C2=O)[C@@H](O[C@H]2C[C@H](NC(=O)C(F)(F)F)[C@H](O)[C@H](C)O2)O1 [BCH2122, (1'S, 1R, 3S)-5,10-dioxo-3-isopropoxycarbonyl-1-(2',3',6'-trideoxy-3'-trifluoroacetamido-L-lyxohexopyranose)-3,4,5,10-tetrahydro-1H-naphtho-[2,3-c]-pyran] | 370 | 2000 | 730 | 640 |  |  |  |  |  |
| CC(=O)[C@H]1CC2=C(C(=O)c3ccccc3C2=O)[C@H](O[C@H]2C[C@H](NC(=O)C(F)(F)F)[C@H](O)[C@H](C)O2)S1 [BCH2127, (1'S, 1R, 3R)-1-(3'-trifluoroacetamido-2',3',6'-trideoxy-L-lyxohexopyranose)-3-acetyl-5,10-dioxo-3,4,5,10-tetrahydro-1H-naphtho-[2,3-c]-thiopyran] | 350 | 4100 | 2000 | 2700 |  |  |  |  |  |
| COC(=O)[C@@H]1CC2=C(C(=O)c3ccccc3C2=O)[C@@H](O[C@H]2C[C@H](NC(=O)C(F)(F)F)[C@H](O)[C@H](C)O2)O1 [BCH2128, (1'S, 1R, 3S)-5,10-dioxo-3-methoxycarbonyl-1-(2',3',6'-trideoxy-3'-trifluoroacetamido-L-lyxohexopyranose)-3,4,5,10-tetrahydro-1H-naphtho-[2,3-c]-pyrano] | 1700 | 5800 | 1400 | 1600 |  |  |  |  |  |
| CC(=O)C1CC2=C(C(=O)c3ccccc3C2=O)C(OC2CC(NC(=O)C(F)(F)F)C(O)C(C)O2)O1 [BCH2145, (1S, 3R)-1-(2',3',6'-trideoxy-3'-trifluoroacetamido-4'-hydroxy-1,5-dihydro-L-lyxohexopyranose-2-yl)-5,10-dioxo-3,4,5,10-tetrahydro-1H-naphtho-[2,3-c] pyran] |  |  |  |  |  | 1780 |  |  |  |
| COC1OC(C(=O)NCCCN2CCCC2=O)=CC2=C1C(=O)c1ccccc1C2=O (stereo not shown) [BCH2166, 1-methoxy-3-(3-N-pyrrolidinomylpropylaminocarbonyl)-5,10-dioxo-5,10-dihydro-1H-naphtho-[2,3-c]-pyran] |  |  |  |  |  | 237 | 140 to 181 | 443 to 1200 |  |
| COC1OC(C(=O)NCCN2CCOCC2)=CC2=C1C(=O)c1ccccc1C2=O (stereo not shown) [BCH2170, 1-methoxy-3-[2-(N-morpholino)ethylaminocarbonyl]-5,10-dioxo-5,10-dihydro-1H-naphtho-[2,3-c]-pyran] | 259 | 394 |  | 244 |  |  |  |  |  |
| COC1OC(C(=O)NCCN2CCOCC2)=CC2=C1C(=O)c1ccccc1C2=O (stereo not shown) [BCH2171, 1-methoxy-3-[2-(N-morpholine)ethylaminocarbonyl]-5,10-dioxo-5,10-dihydro-1H-naphtho-[2,3-c]-pyran] |  |  |  |  |  | 398 |  |  | 422 to 440 |
| COC(=O)C1=CC2=C(CO1)C(=O)c1ccccc1C2=O [BCH2830, 3-methoxy carbonyl-5,10-dioxo-5,10-dihydro-1H-naphtho-[2,3-c]-pyran] | 7120 |  |  | 12500 |  |  |  |  |  |
